Results: patent US20080214606A1, “Methods for the Identification and Use of Compounds Suitable for the Treatment of Drug Resistant Cancer Cells” (The Government of the United States of America as …, priority 2004, published 2008)

Biological target: ABCB1 (Homo sapiens, UniProt P08183)
Assay: Correlation of ABCB1 expression with drug sensitivity across the NCI-60
Experimental: Expression levels are measured by real-time quantitative RT-PCR using the LightCycler RNA Amplification SYBR Green kit and a LightCycler machine (Roche Biochemicals, Indianapolis, Ind.). Specific oligonucleotide probes are designed for each of the ABC transporters using DNAStar Primer Select (DNASTAR Inc.), and they may be synthesized at Lofstrand Laboratories (Gaithersburg, Md.). When possible, the amplicons are designed to encompass exon-intron boundaries to avoid amplification of genomic DNA. Since the Syber Green assay detects accumulation of double stranded DNA, primers are selected (from a battery consisting of about 200 primers) that amplified a single product of the correct size.
RT-PCR is carried out on 150 ng total RNA, in the presence of 250 nM specific primers. Following reverse transcription (20 min at 50° C.), the PCR reaction consists of 45 cycles of denaturation (15 sec at 95° C.), annealing (30 sec at 58° C.), and elongation (30 sec at 72° C.). No-template (water) reaction mixtures are prepared as negative controls.
During PCR amplification, fluorescence emission is measured and recorded in real time by the LightCycler. Crossing point values are calculated, using the LightCycler software package, by the Fit Points analysis method, with baseline fluorescence set at 1. The SyberGreen assay measures accumulation of double-stranded products, and the appearance of primer dimers limits quantitation at high cycle numbers. […] The raw results are expressed as number of cycles to reach the crossing point. If the desired product is not detected, the corresponding value is adjusted to crossing points indicating no expression. To assess the contribution of experimental artifacts, selected cell lines are assessed in replicate.
Both sets are available at http://discover.nci.nih.gov. The two are combined to form a joint dataset that includes 1429 compounds.
To determine quantitatively how well the 47 genes cluster the cell lines by their tissues of origin, a statistical method is employed wherein the kappa statistic is used to indicate how well the observed clusters correspond to the nine tissue-of-origin classifications. […] To control the overall false type 1 error rate, both a step-down procedure (Westfall and Young, 1993, Resampling-Based Multiple Testing: Examples and Methods for p-value Adjustment (New York: Wiley)) and a step-up procedure (Reiner et al., 2003, Bioinformatics 19:368-375) were employed to adjust for multiple testing of all 47 genes simultaneously. In the Benjamini-Hochberg procedure the p-values are computed in the standard way by permutation, assuming that all distributions are exchangeable: the number of values in the permuted data with correlations over a threshold, divided by the number of compounds and by the number of permutations. In this analysis, the False Discovery Rate (q-value) at which each compound would be declared was calculated using the step-up procedure for positively correlated test statistics (again true because all correlations being compared are computed against the same ABC gene): in this procedure the first q-value for the largest correlation is the Bonferroni-corrected p-value for that gene; then further q-values are calculated as qj=max(pj*1429/j, qj-1). This procedure limits the expected proportion of false positives in the list 1, . . . , j to at most qj.

Chain of ABCB1 (P08183 whole entry): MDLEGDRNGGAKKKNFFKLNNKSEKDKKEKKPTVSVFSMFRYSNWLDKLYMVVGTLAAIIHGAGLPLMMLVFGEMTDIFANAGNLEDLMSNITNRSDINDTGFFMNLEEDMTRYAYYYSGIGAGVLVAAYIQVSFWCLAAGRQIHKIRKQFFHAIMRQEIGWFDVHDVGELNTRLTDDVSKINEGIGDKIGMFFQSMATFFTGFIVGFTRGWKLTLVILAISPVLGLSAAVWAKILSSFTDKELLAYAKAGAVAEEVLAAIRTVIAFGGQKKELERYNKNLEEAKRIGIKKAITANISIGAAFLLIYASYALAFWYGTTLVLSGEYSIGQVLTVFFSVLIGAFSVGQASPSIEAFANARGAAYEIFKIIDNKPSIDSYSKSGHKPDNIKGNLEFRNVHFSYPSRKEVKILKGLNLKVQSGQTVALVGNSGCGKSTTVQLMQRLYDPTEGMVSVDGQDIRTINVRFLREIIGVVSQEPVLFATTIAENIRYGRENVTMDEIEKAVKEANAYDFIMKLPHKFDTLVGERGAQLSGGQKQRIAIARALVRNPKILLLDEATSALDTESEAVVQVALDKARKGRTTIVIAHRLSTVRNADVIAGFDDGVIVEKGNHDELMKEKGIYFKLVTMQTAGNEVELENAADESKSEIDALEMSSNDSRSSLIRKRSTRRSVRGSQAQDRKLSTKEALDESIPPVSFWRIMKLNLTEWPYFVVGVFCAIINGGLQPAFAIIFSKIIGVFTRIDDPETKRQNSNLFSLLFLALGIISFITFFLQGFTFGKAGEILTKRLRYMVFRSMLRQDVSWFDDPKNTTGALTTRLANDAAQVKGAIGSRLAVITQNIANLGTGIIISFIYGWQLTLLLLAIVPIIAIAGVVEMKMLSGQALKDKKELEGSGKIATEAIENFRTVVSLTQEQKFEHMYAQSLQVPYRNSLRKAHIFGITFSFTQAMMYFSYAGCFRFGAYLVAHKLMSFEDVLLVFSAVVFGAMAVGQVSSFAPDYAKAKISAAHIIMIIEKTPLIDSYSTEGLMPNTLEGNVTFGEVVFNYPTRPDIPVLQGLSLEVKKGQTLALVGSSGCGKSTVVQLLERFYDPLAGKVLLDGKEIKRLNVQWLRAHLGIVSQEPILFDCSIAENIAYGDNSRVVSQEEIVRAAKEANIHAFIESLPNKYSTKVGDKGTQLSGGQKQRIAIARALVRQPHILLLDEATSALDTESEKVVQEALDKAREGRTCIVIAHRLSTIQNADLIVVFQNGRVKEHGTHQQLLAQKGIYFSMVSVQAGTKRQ

Row | Compound | Pearson's Correlation Coeff | Correlation of antiproliferative activity with ABCB1 expression | also measured
1 | O=C(NO)c1cccc(OCc2ccc(Br)cc2)c1 [NSC692756] | 0.4093 |  | 
2 | Oc1ccc2ccccc2c1-c1nnc(CCCCCCCCc2nnc(-c3c(O)ccc4ccccc34)o2)o1 [NSC697189] | 0.2621 |  | 
3 | CC[C@]12C=CCN3CCC4(c5cc([C@@]6(C(=O)OC)CC7CN(CCc8c6[nH]c6ccccc86)C[C@@H]6CCC[C@H]76)c(OC)cc5N(C)C4[C@](O)(C(=O)OC)C1OC(C)=O)C32.COS(=O)(=O)O (stereo partly shown) [NSC 651727] |  |  | Correlation: −0.3910
4 | O=C1c2c(nc3ccccc3c2-c2ccccc2)CN1Nc1ccccn1 [NSC 648072] |  | 0.3579 | 
5 | Nc1nc(N)c2nc(CNc3ccc(C(=O)NC(CCC(=O)O)C(=O)O)cc3F)cnc2n1.O=C(O)C(F)(F)F (stereo not shown) [NSC 607301] |  | 0.3523 | 
6 | COc1ccc2oc(S(=O)(=O)N3CC(CCl)c4ccc(N)cc43)cc2c1 (stereo not shown) [NSC696124] | 0.2104 |  | 
7 | c1cc(-c2cn3ccsc3n2)ccn1 [NSC 641288] |  | 0.3643 | 
8 | CN(C)CCNC(=O)c1cc(Cl)cc2cc3ccccc3nc12.Cl [NSC 617966] |  | 0.3715 | 
9 | CC(C)=CCC[C@@H](C)C1=C(Nc2ccccc2Cl)C(O)=C(C)C(=O)C1=O [NSC697138] | 0.3551 |  | 
10 | Cc1ccc(S(=O)(=O)O)cc1.N/C(=N\N=C/c1cc(Br)cc(Br)c1O)NO [NSC 371168] |  | 0.3643 | 
11 | c1ccc(/C(=N/Nc2ccccn2)c2cccnn2)cc1 [NSC693623] | 0.2952 |  | 
12 | CC(/C=N/NC(=S)N1CCCCC1)=N/NC(=S)N1CCCCC1 [NSC 693326] |  | 0.3892 | 
13 | COC(=O)CN(CC(O)C(NC(C)=O)C(O)C=O)C(=O)OCc1ccccc1 (stereo not shown) [NSC 693931] |  | 0.3708 | 
14 | NC(=O)NO [hydroxyurea, reference compound] |  |  | Relationship between drug sensitivity and ABCB1 expression (in words): non-correlated or positively correlated
15 | C=C1C(=O)O[C@@H]2C[C@H]1CC[C@]1(C)O[C@H]1CC/C(C)=C/CC[C@]2(C)O [NSC285706] | 0.3654 |  | 
16 | COc1ccc2nc3c(C(=O)NCCN(C)C)cccc3cc2c1.Cl [NSC 617959] |  | 0.3586 | 
17 | CCc1c(CNc2ccc(C(=O)NC(CC(=O)O)C(=O)O)cc2)ccc2nc(N)nc(N)c12 (stereo not shown) [NSC184692] | 0.2971 |  | 
18 | CSc1nc2nn(Cc3ccccc3)cc2c(=O)[nH]1 [NSC 622927] |  | 0.4001 | 
19 | Cc1cc(C)c(C2=NO[C@@H]3[C@H]2C(=O)C=C2N(Cc4ccccc4)CCO[C@@]23O)c(C)c1 [NSC 627025] |  | 0.3511 | 
20 | CC(C)=CCC[C@@H](C)C1=C(O)C(=O)C(C)=C(N)C1=O [NSC697125] | 0.5604 | 0.5358 | 
21 | CCc1nc(N)nc(N)c1-c1ccc([N+](=O)[O-])c(Cl)c1 [NSC602313] | 0.3012 |  | 
22 | O=C([O-])c1ccc(C(=O)[O-])c(C(=O)[O-])c1.[H+].[NH-]C1CCCCC1[NH-].[Pt+4] [NSC271674] | 0.2678 |  | 
23 | CC(C)=CCC[C@@H](C)C1=C(Nc2ccccc2F)C(=O)C(C)=C(O)C1=O [NSC697131] | 0.3514 | 0.3522 | 
24 | CN(Cc1cnc2nc(N)nc(N)c2n1)c1ccc(C(=O)N[C@@H](CCC(=O)O)C(=O)O)c2ccccc12 [NSC174121] | 0.2662 |  | 
25 | N#Cc1c(Nc2ccccc2)[n+]([O-])c2ccc(Cl)cc2[n+]1[O-] [NSC693869] | 0.2805 |  | 
26 | O=C(/C=C/c1ccccc1)CSc1nc2ccc(I)cc2c(=O)n1Cc1ccccc1 [NSC 715729] |  | 0.3544 | 

Row | Compound | Pearson's Correlation Coeff | Correlation of antiproliferative activity with ABCB1 expression | also measured
27 | N#Cc1c(N2CCN(c3ccc([N+](=O)[O-])cc3)CC2)[n+](=O)c2ccc(Cl)cc2n1[O-] [NSC688493] | 0.2012 |  | 
28 | CC(C)=CCC[C@@H](C)c1c2[nH]c3ccccc3sc-2c(C)c(=O)c1=O [NSC697130] | 0.4582 | 0.3925 | 
29 | COc1ccc2oc(S(=O)(=O)N3CC(CCl)c4ccc([N+](=O)[O-])cc43)cc2c1 (stereo not shown) [NSC696992] | 0.2171 |  | 
30 | Nc1ncnc2c1nc(Cl)n2[C@@H]1O[C@@H]2COP(=O)(O)O[C@H]2[C@H]1O [NSC284751] | 0.2759 |  | 
31 | CC1(C)C2CC1C(C(O)C1c3cc(-c4ccccn4)ncc3C3CC1C3(C)C)c1cc(-c3ccccn3)ncc12 (stereo not shown) [NSC697653] | 0.1718 |  | 
32 | CC1=C(N2CC2)C(=O)C(C)=C(N2CC2)C1=O [NSC646714] | 0.3262 |  | 
33 | NC(=S)NN=Cc1ncccc1O [NSC95678] | 0.2475 |  | 
34 | O=[Se](=O)c1ccccc1.O=[Se](=O)c1ccccc1.[Cu] [NSC 626670] |  | 0.4177 | 
35 | Cc1c2ccncc2c(C)c2c1[nH]c1ccc(Cl)cc12 [NSC176326] | 0.3552 |  | 
36 | O=S1(=O)CCC2=CC(C(F)(F)F)=CC(C(F)(F)F)=CN21 [NSC605440] | 0.2658 |  | 
37 | O=C(N[C@@H](c1ccccc1)[C@@H](O)C(=O)OCc1ccc2c(c1)OCO2)c1ccccc1 [NSC 625349] |  | 0.3935 | 
38 | CS(C)=O.[Cl][Pt][Cl].c1ccc2ncccc2c1 [NSC632790] | 0.2677 |  | 
39 | CC(C)=CCCC(C)c1c(O)c(O)c(C)c2nc3ccccc3nc12 (stereo not shown) [NSC697120] | 0.4167 | 0.4435 | 
40 | CC(C)=CCC[C@@H](C)C1=C(N)C(=O)C(C)=C(O)C1=O [NSC 697124] |  | 0.4636 | 
41 | [N-]=[N+]=CC(=O)OC1Cc2ccccc2C1 [NSC 679285] |  | 0.3504 | 
42 | O=[N+]([O-])c1ccc(O)c(/C=N/NC(=S)N2CCCCC2)c1 [NSC689530] | 0.3398 |  | 
43 | CCOc1cc2c(cc1O)C(=O)C[C@@H]1[C@@H]2CC[C@]2(C)[C@@H](O)CC[C@@H]12 [NSC679431] | 0.2672 |  | 
44 | CNC(=O)C(C)C1CCC2(C)C=CC(=O)C(C)=C2C1O (stereo not shown) [NSC 623069] |  | 0.459 | 
45 | CCc1nc(N)nc(N)c1-c1ccc(N(C)Cc2ccccc2)c([N+](=O)[O-])c1 [NSC382035] | 0.3180 |  | 
46 | Br.CCN(CC)CC[n+]1ccc2c(C)c3[nH]c4ccccc4c3c(C)c2c1.[Br-] [NSC 353076] |  |  | Correlation: −0.7983
47 | c1cc2n(n1)CCN2 [NSC51143] | 0.4328 |  | 
48 | O=c1cc(-c2cccc(OCc3ccccc3)c2)[nH]c2cc3c(cc12)OCO3 [NSC657279] | 0.2253 |  | 
49 | CC[C@]1(O)C[C@@H]2CN(CCc3c([nH]c4ccccc34)[C@@](C(=O)OC)(c3cc4c(cc3OC)N(C)[C@H]3[C@@](O)(C(=O)OC)[C@H](OC(C)=O)[C@]5(CC)C=CCN6CC[C@]43[C@@H]65)C2)C1 [vinblastine, reference compound] |  |  | Relationship between drug sensitivity and ABCB1 expression (in words): striking inverse correlations
50 | CCc1nc(N)nc(N)c1-c1ccc(Cl)c(N=NN(C)C)c1 [NSC330465] | 0.2872 |  | 
51 | C=C(C)C(=O)O[C@H]1CC2=C[C@@H](C[C@@]3(C)O[C@@H]3[C@H]3OC(=O)C(=C)[C@@H]31)OC2=O [NSC100046] | 0.2949 |  | 
